Laboratory results published in publication PMC11478334, “Quaternized Curcumin Derivative—Synthesis, Physicochemical Characteristics, and Photocytotoxicity, Including Antibacterial Activity after Irradiation with Blue Light” (Molecules, 2024).
Like-named read-outs stand apart in the source and are kept apart here.

Tests used:
[1] = Singlet oxygen generation quantum yields, indirect method with DPBF or TTF; assay type: physicochemical
Method: Singlet oxygen generation quantum yield assessment constitutes a crucial measurement for the prospective photosensitizers applied in photodynamic therapy. For the singlet oxygen generation study, the indirect method was chosen with two different singlet oxygen quenchers—1,3-diphenylisobenzofuran (DPBF) and tetrathiafulvalene (TTF). Due to the partial overlapping of the DPBF band with the studied compounds’ bands in absorption spectra, a singlet oxygen formation assessment was also performed with TTF as a chemical singlet oxygen scavenger. The values obtained for new curcuminoids 2 and 3 were referenced to curcumin and ZnPc.
Singlet oxygen quantum yield measurements for 2, 3, and curcumin were assessed in dimethyl sulfoxide (DMSO; Fisher, Longborough, UK) and N,N-dimethylformamide (DMF; Fisher) at ambient temperature according to the comparative method protocols described previously. The method involves using chemical quenchers of singlet oxygen, 1,3-diphenylisobenzofuran (DPBF; Merck, Steinheim, Germany), tetrathiafulvalene (TTF; Aldrich, Steinheim, Germany), and an unsubstituted zinc(II) phthalocyanine (ZnPc; Aldrich) as a reference compound. The mixtures of curcumins and DPBF or TTF were irradiated with light adjusted to the maximum absorbance wavelength through the M250 monochromator (Optel, Opole, Poland). The changes in spectra under the irradiation were recorded with an OceanOptics Flame spectrophotometer equipped with a DT-MINI-2-GS light source. The singlet oxygen quantum yields were calculated using the previously presented equation [39, 73, 74, 75].

Aliivibrio fischeri = test: Microtox acute toxicity test; assay type: cell-based; details: for acute toxicity / ecotoxicity verdict: tested at 1, 10 and 100 µM
Text: All studied compounds were subjected to a Microtox acute toxicity test. The test is based on bioluminescent Aliivibrio fischeri bacteria, which are very sensitive to the presence of toxic substances. Changes in the toxicity of the environment surrounding the bacterium influence its respiratory processes and translate into the emitted bioluminescence intensity. Therefore, in contact with a toxic substance at a specific concentration, a linear decrease in luminescence is observed. Dimethylsulfoxide was used as a solubilizer of studied compounds in amounts not exceeding 1% v/v. To determine the effect of the solvent alone, 1% DMSO solution in water was also tested.
The acute toxicity of the tested curcumionoids was investigated on a Modern Water Microtox Model 500 apparatus equipped with Modern Water MicrotoxOmni 4.2 software, according to the 81.9% screening test procedure provided by the manufacturer (Modern Water, London, UK). All the reagents and solutions (Microtox Acute Reagent, Microtox Diluent, and Microtox Osmotic Adjusting Solution) were purchased from Tigret (Warsaw, Poland). Solutions of the tested compounds were prepared using DMSO and deionized water. […] Each compound was tested at three final concentrations (1 µM, 10 µM, and 100 µM) and at two time points: 5 min and 15 min. The change in the bacterial bioluminescence was monitored after the addition of the sample solution and compared to the negative control.

[2] = system: WM266-4—melanoma (low-melanotic); test: MTT cell viability assay; assay type: cell-based
Method: To determine the toxicity of the tested compounds against normal and tumor cells, a cell viability assay was performed using MTT dye. The following cell lines were used: PHDF—primary human dermal fibroblasts, MRC-5—lung fibroblasts, WM266-4—melanoma, and WM115—melanoma. Whenever possible, the IC50 value was calculated for each cell line. The IC50 results are reported in Table 9, while Figure 14 presents graphs illustrating the dependence of cell viability on the concentration of the tested compounds.
In order to analyze the cytotoxic effect of curcumin and compounds 2 and 3, different cell lines were used: PHDF—primary human dermal fibroblasts, MRC-5—lung fibroblasts, WM266-4—melanoma (low-melanotic), and WM115—melanoma (high-melanotic). All cell lines were seeded onto 96-well flat-bottom plates at a concentration of 15,000 cells/well. Curcumin (1) and compounds 2 and 3 were dissolved in the completed culture medium at the final concentrations of 5 µM, 10 µM, 20 µM, 30 µM, 40 µM, and 50 µM. The final volume of medium in each well was 200 µL. Cells which were not exposed to the tested compounds constituted a control group. After 24 h, each of the reagents was added to the cells. Control cells were not treated with synthesized reagents; they were incubated with a completed cell culture medium. The incubation of cells with 1, 2, or 3 lasted 24 and 48 h. Then, the medium was discarded, and the new medium containing MTT (3-(4,5-dimethylthiazol-2-yl)-2,5-diphenyltetrazolium bromide) (Affymetrix, Cleveland, OH, USA) at a final concentration of 0.5 mg/mL was added to the cell culture. Cells were incubated for 2.5 h in cell culture conditions. Next, the medium was removed, and 100 µL of DMSO (Thermo Scientific, Waltham, MA, USA) was added to dissolve the formed formazan crystals. The absorbance was read with a Multiskan plate reader at 570 nm and the background at 655 nm (Thermo Scientific, Waltham, MA, USA). The experiment was performed in triplicate.
PHDF cells were extracted from skin pieces collected following mastectomy procedures at the Greater Poland Cancer Centre in Poznań, Poland. Each time, informed patient agreement was acquired for the “The Cancer Genome Atlas (TCGA)” project to utilize biological material for scientific research purposes. […] The MRC-5, WM266-4, and WM115 cell lines were obtained from the American Type Culture Collection (ATCC). For culturing of the PHDF, WM266-4, and WM115 cell lines, the medium contained Dulbecco′s Modified Eagle′s Medium (DMEM) (Biowest, Nuaillé, France), 10% of fetal bovine serum (Biowest, Nuaillé, France), and 1% of penicillin/streptomycin agents (Merck Millipore, Darmstadt, Germany). Cells were incubated in a humidified incubator containing 5% CO2. The MRC-5 cell line was cultured similarly to the method described in our previous article. Briefly, cells were incubated at 37 °C in an atmosphere enriched with 5% CO2. The basic culture medium was Dulbecco’s Modified Eagle’s Medium (DMEM) (Biowest, Nuaillé, France) supplemented with 10% fetal bovine serum (FBS) (Biowest, Nuaillé, France) with the addition of 2 mM L-glutamine and 5% non-essential amino acid solution.

[3] = UV-vis absorption spectra (spectral properties); assay type: physicochemical
Text: In the UV–vis spectra of the studied curcumin derivatives 2 and 3, typical absorption bands in the 350–550 nm range were noted (Figure 7). The absorption maxima of 2 and its quaternized derivative 3 were located close to 500 nm in both DMSO and DMF (for 2, λmax 496 nm in DMF and 502 nm in DMSO; for 3, λmax 489 nm in DMF and 495 nm in DMSO), whereas for the unsubstituted curcumin, the absorption maximum was located at 430 nm in DMF and 436 nm in DMSO. This implies that the presence of the BF2 moiety induces a strong bathochromic shift, as reported before. Further conversion of non-ionic 2-(morpholin-4-yl)ethoxy substituents present in 2 into quaternary ammonium cations present in 3 2-(N-methylmorpholinium)ethoxy groups induced a slight […] hypsochromic shift in both solvents. The strong absorption band originates mainly from π-π* electronic transition. To a lesser extent, such peaks come from the n-π* transition, although the importance of this crossing remains unclear.

[4] = 24 h incubation, read-out: IC50 24 h
[5] = 48 h incubation, read-out: IC50 48 h (converted)

| Compound | singlet oxygen quantum yield ([1]; DPBF quencher, DMF) | singlet oxygen quantum yield ([1]; DPBF quencher, DMSO) | singlet oxygen quantum yield ([1]; TTF quencher, DMF) | singlet oxygen quantum yield ([1]; TTF quencher, DMSO) | decrease in A. fischeri bioluminescence (Aliivibrio fischeri; 100 µM) | effect on A. fischeri bioluminescence (Aliivibrio fischeri; lower concentrations (below 100 µM)) | IC50 [2, 4] | IC50 [2, 5] | absorption maximum λmax ([3]; in DMF) | absorption maximum λmax ([3]; in DMSO) | singlet oxygen generation ΦΔ, reaching up to ([1]; TTF used, solvent not stated) | decrease in A. fischeri bioluminescence (Aliivibrio fischeri; 10 µM, after 5 min exposure) | acute toxicity / ecotoxicity verdict (Aliivibrio fischeri) | singlet oxygen generation ΦΔ, estimated ([1]; natural curcumin, solvent not stated) | decrease in A. fischeri bioluminescence (Aliivibrio fischeri; 1 µM) | decrease in A. fischeri bioluminescence (Aliivibrio fischeri; 10 µM) | IC50 ([2]; 24 h incubation, listed as curcumin, read-out: IC50 24 h) | IC50 ([2]; 48 h incubation, listed as curcumin, read-out: IC50 48 h (converted)) |
| --- | --- | --- | --- | --- | --- | --- | --- | --- | --- | --- | --- | --- | --- | --- | --- | --- | --- | --- |
| F[B-]1(F)OC(/C=C/c2ccc(OCCN3CCOCC3)cc2)=CC(/C=C/c2ccc(OCCN3CCOCC3)cc2)=[O+]1 [Compound 2] | <0.01 | 0.024 | <0.01 | <0.01 | 45% | negligible | > 50 µM | > 50 µM | 496 nm | 502 nm | – | – | – | – | – | – | – | – |
| C[N+]1(CCOc2ccc(C=CC3=CC(C=Cc4ccc(OCC[N+]5(C)CCOCC5)cc4)=[O+][B-](F)(F)O3)cc2)CCOCC1 [Compound 3] | 0.026 | 0.046 | 0.084 | 0.057 | 99% | – | > 50 µM | > 50 µM | 489 nm | 495 nm | ≤ 0.1 | 53% | could be ecotoxic at concentrations of 10 µM and 100 µM | – | – | – | – | – |
| Curcumin [reference compound] | – | – | 0.098 | 0.116 | – | – | 44.9 ± 10.7 µM | 20.6 µM | 430 nm | 436 nm | – | – | reveals ecotoxicity only at concentrations of 100 µM and 10 µM | 0.04–0.1 | 0% | 99% | 45 µM | 21 µM |
